Measurements as given in ChEMBL document CHEMBL1145498, “A systematic interaction map of validated kinase inhibitors with Ser/Thr kinases” (Proc Natl Acad Sci U S A, 2007).

What was measured:
[1] = biological target: Calcium/calmodulin-dependent protein kinase type 1G (Homo sapiens) (UniProt Q96NX5)
[2] = biological target: Calcium/calmodulin-dependent protein kinase type II subunit beta (Homo sapiens) (UniProt Q13554)
[3] = biological target: Cyclin-dependent kinase-like 1 (Homo sapiens) (UniProt Q00532)
[4] = biological target: Casein kinase I isoform gamma-1 (Homo sapiens) (UniProt Q9HCP0)
[5] = biological target: Death-associated protein kinase 3 (Homo sapiens) (UniProt O43293)
[6] = biological target: Dual specificity mitogen-activated protein kinase kinase 2 (Homo sapiens, UniProt P36507)
[7] = biological target: T1, Dual specificity mitogen-activated protein kinase kinase 6 (Homo sapiens) (UniProt P52564)
T1 sequence (whole entry): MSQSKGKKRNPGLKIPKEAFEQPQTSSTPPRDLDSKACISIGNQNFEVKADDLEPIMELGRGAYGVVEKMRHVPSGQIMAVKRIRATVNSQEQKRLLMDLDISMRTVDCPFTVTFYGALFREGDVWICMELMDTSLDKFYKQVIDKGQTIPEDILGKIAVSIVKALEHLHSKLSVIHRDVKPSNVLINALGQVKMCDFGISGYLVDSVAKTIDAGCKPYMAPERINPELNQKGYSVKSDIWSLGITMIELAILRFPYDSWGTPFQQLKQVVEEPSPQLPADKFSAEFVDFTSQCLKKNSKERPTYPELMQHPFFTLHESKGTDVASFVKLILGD

[8] = biological target: T2, Mitogen-activated protein kinase kinase kinase 5 (Homo sapiens) (UniProt Q99683)
T2 sequence (whole entry): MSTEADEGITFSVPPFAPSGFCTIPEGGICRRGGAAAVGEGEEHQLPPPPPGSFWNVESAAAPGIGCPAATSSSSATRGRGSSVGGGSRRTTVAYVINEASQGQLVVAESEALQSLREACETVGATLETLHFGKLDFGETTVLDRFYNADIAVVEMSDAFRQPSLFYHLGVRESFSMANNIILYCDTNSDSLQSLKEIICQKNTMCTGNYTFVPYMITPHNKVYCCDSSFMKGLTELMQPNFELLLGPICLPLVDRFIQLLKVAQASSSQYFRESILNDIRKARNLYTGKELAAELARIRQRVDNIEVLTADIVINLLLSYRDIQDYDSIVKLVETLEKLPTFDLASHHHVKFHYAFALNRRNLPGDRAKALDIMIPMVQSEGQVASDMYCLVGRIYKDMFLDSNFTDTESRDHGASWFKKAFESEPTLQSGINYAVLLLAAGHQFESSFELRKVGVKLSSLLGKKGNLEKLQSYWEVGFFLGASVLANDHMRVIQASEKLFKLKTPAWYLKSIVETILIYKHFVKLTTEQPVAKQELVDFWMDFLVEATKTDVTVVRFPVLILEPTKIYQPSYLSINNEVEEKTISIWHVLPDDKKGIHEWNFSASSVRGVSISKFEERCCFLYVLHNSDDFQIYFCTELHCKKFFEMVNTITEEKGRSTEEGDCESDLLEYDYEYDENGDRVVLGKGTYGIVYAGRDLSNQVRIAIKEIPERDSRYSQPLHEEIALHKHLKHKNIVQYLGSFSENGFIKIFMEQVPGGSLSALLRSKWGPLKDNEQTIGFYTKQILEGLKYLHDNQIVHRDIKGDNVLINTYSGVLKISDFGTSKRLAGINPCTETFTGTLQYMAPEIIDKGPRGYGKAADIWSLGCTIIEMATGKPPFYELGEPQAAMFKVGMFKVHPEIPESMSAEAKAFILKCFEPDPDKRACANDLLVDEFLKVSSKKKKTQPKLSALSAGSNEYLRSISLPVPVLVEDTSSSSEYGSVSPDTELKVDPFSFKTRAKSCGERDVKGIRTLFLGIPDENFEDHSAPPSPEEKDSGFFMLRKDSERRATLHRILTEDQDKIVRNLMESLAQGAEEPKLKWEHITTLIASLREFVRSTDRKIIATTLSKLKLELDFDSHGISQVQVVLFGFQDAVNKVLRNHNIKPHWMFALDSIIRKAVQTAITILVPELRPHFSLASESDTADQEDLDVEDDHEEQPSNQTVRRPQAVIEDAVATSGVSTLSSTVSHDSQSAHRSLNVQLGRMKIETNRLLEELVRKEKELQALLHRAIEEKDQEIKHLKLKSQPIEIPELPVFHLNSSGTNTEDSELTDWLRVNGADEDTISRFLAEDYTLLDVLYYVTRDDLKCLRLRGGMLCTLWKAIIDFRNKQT

[9] = biological target: Mitogen-activated protein kinase 6 (Homo sapiens) (UniProt Q16659)
[10] = biological target: Serine/threonine-protein kinase OSR1 (Homo sapiens) (UniProt O95747)
[11] = biological target: Serine/threonine-protein kinase RIO2 (Homo sapiens) (UniProt Q9BVS4)
[12] = biological target: Ribosomal protein S6 kinase alpha-3 (Homo sapiens) (UniProt P51812)
[13] = biological target: T3, Serine/threonine-protein kinase 17A (Homo sapiens) (UniProt Q9UEE5)
T3 sequence (whole entry): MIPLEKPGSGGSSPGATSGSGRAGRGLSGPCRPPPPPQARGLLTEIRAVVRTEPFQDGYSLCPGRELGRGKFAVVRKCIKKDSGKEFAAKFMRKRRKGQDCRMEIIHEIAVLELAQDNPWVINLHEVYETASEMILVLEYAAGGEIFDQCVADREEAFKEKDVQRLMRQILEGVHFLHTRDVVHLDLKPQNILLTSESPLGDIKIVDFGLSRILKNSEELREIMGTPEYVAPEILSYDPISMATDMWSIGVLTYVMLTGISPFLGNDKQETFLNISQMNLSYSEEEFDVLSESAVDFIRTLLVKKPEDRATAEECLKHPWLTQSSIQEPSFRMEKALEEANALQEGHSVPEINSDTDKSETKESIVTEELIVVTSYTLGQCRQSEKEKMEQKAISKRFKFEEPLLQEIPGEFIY

[14] = biological target: Serine/threonine-protein kinase 26 (Homo sapiens) (UniProt Q9P289)

Sequence of Death-associated protein kinase 3 (Homo sapiens) (O43293 whole entry, looked up): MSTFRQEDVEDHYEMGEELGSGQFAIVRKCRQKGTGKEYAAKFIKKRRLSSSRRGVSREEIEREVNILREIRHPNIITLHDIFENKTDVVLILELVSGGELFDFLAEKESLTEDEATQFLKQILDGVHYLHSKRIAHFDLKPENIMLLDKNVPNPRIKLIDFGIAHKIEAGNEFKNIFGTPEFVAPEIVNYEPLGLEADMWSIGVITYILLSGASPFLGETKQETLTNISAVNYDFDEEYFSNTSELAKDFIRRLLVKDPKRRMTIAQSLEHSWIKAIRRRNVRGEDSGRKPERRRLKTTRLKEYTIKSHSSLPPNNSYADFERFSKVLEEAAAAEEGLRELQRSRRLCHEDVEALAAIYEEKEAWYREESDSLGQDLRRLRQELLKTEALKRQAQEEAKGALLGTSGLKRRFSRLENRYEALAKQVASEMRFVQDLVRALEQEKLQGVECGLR
Sequence of Cyclin-dependent kinase-like 1 (Homo sapiens) (Q00532 whole entry, canonical isoform): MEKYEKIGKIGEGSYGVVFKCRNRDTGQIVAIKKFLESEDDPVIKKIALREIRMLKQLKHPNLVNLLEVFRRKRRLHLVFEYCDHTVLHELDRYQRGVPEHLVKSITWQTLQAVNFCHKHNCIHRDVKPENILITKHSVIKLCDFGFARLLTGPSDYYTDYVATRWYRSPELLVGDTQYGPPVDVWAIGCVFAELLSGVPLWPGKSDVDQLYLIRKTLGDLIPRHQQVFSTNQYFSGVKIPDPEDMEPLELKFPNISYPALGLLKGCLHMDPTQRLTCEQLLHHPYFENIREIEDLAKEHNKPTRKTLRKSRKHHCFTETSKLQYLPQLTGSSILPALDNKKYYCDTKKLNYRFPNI
Sequence of Casein kinase I isoform gamma-1 (Homo sapiens) (Q9HCP0 whole entry, looked up, canonical isoform): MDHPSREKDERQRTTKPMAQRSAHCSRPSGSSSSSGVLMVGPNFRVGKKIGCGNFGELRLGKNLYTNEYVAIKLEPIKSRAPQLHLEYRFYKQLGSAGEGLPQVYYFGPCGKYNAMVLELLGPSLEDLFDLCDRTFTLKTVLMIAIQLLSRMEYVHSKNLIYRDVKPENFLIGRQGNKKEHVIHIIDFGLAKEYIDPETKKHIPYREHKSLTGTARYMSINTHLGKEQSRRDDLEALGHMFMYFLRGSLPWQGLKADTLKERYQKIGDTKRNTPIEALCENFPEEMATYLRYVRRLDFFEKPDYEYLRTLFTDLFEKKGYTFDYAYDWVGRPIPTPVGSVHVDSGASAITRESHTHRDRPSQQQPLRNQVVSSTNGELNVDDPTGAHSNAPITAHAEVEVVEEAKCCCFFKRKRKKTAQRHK
Sequence of Mitogen-activated protein kinase 6 (Homo sapiens) (Q16659 whole entry): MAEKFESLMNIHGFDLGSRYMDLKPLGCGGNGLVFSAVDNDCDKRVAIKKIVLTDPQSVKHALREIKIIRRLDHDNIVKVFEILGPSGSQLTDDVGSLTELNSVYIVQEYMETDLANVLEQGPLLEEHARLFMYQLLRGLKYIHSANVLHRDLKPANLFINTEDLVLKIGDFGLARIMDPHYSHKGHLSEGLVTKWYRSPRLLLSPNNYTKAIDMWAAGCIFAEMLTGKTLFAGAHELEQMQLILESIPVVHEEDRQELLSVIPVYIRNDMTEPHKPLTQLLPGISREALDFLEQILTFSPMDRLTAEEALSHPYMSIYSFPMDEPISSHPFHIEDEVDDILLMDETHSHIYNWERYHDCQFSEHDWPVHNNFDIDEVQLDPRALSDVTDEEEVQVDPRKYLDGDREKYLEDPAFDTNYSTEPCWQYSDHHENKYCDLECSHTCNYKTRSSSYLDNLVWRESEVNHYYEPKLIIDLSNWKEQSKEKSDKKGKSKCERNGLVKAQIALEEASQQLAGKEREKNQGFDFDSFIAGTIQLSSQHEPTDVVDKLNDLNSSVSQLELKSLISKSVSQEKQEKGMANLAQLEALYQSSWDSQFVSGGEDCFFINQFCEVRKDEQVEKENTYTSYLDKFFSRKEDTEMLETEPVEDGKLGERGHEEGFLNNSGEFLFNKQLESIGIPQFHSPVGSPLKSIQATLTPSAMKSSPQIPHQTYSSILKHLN
Sequence of Serine/threonine-protein kinase OSR1 (Homo sapiens) (O95747 2-527 limits assumed): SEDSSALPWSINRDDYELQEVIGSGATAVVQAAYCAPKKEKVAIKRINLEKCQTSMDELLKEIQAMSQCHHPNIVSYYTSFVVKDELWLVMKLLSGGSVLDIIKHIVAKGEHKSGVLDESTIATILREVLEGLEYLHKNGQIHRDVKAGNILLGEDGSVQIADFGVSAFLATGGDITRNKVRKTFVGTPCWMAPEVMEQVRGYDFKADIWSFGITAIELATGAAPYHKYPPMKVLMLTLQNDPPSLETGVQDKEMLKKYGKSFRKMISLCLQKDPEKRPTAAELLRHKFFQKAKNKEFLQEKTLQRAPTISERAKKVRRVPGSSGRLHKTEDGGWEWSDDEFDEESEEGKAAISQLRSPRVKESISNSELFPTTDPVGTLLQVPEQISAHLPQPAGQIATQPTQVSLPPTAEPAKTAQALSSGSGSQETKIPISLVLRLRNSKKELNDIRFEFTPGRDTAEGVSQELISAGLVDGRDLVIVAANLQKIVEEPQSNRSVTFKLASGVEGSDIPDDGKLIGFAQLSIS
Sequence of Dual specificity mitogen-activated protein kinase kinase 2 (P36507 whole entry): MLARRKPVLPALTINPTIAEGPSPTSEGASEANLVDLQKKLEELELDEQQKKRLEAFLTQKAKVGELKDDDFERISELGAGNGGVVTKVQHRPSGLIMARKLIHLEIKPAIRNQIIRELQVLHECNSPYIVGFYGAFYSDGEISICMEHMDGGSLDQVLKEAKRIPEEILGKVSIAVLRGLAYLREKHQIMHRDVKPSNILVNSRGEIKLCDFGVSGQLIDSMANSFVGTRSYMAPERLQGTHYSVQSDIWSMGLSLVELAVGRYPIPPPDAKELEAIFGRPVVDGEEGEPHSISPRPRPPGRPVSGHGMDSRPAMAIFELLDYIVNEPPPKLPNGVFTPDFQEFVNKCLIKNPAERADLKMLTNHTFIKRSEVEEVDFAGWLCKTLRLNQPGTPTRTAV
Sequence of Ribosomal protein S6 kinase alpha-3 (Homo sapiens) (P51812 whole entry): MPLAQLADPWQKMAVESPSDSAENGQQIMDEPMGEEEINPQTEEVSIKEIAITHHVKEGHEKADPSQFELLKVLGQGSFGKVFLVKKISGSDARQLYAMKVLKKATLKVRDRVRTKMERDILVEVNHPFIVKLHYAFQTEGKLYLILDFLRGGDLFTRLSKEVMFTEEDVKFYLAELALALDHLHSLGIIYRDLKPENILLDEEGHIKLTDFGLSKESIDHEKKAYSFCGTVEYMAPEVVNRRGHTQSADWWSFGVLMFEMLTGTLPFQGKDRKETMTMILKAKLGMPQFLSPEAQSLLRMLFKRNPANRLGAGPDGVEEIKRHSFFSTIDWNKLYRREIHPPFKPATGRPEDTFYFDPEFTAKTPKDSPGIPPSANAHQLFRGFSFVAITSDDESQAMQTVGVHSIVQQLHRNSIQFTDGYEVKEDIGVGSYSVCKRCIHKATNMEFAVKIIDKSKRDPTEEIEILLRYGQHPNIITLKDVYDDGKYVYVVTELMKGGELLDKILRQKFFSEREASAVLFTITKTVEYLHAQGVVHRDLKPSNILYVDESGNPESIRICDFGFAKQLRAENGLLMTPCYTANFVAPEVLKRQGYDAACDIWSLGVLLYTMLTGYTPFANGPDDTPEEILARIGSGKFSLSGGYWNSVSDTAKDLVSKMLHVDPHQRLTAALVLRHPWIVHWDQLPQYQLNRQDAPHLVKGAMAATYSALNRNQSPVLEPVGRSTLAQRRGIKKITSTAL
Sequence of Serine/threonine-protein kinase RIO2 (Homo sapiens) (Q9BVS4 whole entry, looked up): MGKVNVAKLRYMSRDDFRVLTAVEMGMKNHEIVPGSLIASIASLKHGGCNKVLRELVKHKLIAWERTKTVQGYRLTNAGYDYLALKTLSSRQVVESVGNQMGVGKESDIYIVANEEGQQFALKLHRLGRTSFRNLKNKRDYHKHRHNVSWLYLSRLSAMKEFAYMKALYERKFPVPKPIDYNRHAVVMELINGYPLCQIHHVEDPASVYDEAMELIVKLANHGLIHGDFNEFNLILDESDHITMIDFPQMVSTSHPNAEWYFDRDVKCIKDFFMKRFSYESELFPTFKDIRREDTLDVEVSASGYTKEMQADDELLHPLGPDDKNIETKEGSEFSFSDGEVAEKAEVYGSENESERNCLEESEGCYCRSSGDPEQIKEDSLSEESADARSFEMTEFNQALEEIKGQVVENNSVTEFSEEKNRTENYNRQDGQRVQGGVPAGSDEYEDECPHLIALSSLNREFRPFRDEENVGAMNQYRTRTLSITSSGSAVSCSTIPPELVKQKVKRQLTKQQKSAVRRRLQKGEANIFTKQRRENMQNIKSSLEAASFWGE
Sequence of Calcium/calmodulin-dependent protein kinase type II subunit beta (Homo sapiens) (Q13554 whole entry): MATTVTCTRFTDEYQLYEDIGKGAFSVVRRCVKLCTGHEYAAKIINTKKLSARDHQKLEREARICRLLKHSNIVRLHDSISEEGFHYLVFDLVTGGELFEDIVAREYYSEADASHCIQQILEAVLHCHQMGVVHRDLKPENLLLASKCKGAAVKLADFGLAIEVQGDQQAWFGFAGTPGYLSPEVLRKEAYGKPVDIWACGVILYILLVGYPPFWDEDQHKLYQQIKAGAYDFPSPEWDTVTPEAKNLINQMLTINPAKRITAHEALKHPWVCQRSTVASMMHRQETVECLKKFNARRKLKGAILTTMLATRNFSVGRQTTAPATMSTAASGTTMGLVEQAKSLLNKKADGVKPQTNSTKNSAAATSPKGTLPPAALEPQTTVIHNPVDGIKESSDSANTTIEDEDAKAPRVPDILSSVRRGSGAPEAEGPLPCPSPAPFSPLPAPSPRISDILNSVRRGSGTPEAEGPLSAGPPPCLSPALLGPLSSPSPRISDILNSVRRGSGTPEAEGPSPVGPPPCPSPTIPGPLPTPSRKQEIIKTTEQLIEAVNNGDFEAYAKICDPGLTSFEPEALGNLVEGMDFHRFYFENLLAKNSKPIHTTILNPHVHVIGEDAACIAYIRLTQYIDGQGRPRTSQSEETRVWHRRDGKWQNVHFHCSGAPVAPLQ

SMILES	ΔTm [1] [°C]	ΔTm [2] [°C]	ΔTm [3] [°C]	ΔTm [4] [°C]	ΔTm [5] [°C]	ΔTm [6] [°C]	ΔTm [7] [°C]	ΔTm [8] [°C]	ΔTm [9] [°C]	ΔTm [10] [°C]	ΔTm [11] [°C]	ΔTm [12] [°C]	ΔTm [13] [°C]	ΔTm [14] [°C]
COc1ccc(CNc2nc(N(CCO)CCO)nc3c2ncn3C(C)C)cc1	0.6	0.3	0.3	1.8	0.7	0.1	0.1	2	-0.4	0.4	0.3	1.3	-0.2	1
COc1ccc(S(=O)(=O)N(CCO)c2ccccc2CN(C)C/C=C/c2ccc(Cl)cc2)cc1	0.3	-1.6	-1.2	0.1	0.2	-0.2	0.4	-0.1	-0.5	-0.7	-0.4	-0.9	0.1	-0.1
O=C(O)c1cc(N(Cc2ccccc2O)Cc2cc(O)ccc2O)ccc1O [LAVENDUSTIN A]	0.2	-0.1	-0.3	1.4	0.8	0.5	-1.1	0.2	0.8	-0.1	0	-0.2	0.1	0.4
CC(C)c1nn(-c2c(Cl)cccc2Cl)c2nc(Cc3ccc(OCCO)cc3)[nH]c(=O)c12	0.3	0.9	0.2	0.1	6.2	0.4	0.1	1	0	2.9	0.1	-0.9	0.1	0.5
C=CNC#N	0.4	1.2	-0.1	0.7	-0.2	1.8	0.3	0.4	1	0	0	0	0.7	1.5
CCN1/C(=C/C(C)=O)Sc2ccc(OC)cc21	-0.5	0.3	0.4	2.5	0.9	0.5	0.3	0.4	0	0.1	-0.2	0.4	0.4	0.7
CCN(CC)CCNC(=O)c1c(C)[nH]c(/C=C2\C(=O)Nc3ccc(Cl)cc32)c1C [SU-11652]	5.7	2.8	0.2	4.3	5.9	6.3	2.4	6.3	0.8	2.9	1.6	8.5	11	5.8
CN(c1cccnc1)c1cc2c(Nc3ccc(F)c(Cl)c3)c(C#N)cnc2cn1	2.4	1.2	5.4	1.4	0.7	2.1	0.4	1.4	4.2	0.3	6.1	8.5	4.7	0.7
NC1=N/C(=C2/CCNC(=O)c3[nH]ccc32)C(=O)N1 [DEBROMOHYMENIALDISINE]	0.2	0.7	0.3	3.6	5.2	0.4	0.3	4.6	0.3	0.4	-0.3	2.6	10.2	0.7
Cc1cc(C=C2C(=O)C=CC2=O)cc(C)c1O	-0.4	-0.1	-2.2	0.1	0.6	-2	7.9	2.6	-1.6	0.1	0.7	1.8	-4.6	-0.1
Nc1cccc(-c2cc3c(Oc4cccc(O)c4)ncnc3[nH]2)c1	1	0.5	0.6	1.5	0.4	2.7	2.7	0.5	1.2	1.7	2.4	0.4	0.9	2.2
Cc1[nH]c(/C=C2\C(=O)Nc3ccc(S(=O)(=O)N(C)c4cccc(Cl)c4)cc32)c(C)c1C(=O)N1CCN(C)CC1	1.7	0.8	-0.5	0.6	2.6	1	3	-0.7	1.4	1.6	1.4	7.7	3.3	-0.2
Nc1n[nH]c2nc3ccccc3nc12 [QUINOXALINE1]	0.2	0.3	0.2	0.7	1	0.1	0.3	2.6	0.4	0.7	0.4	0.4	3.5	0.7
Brc1c(Br)c(Br)c2[nH]nnc2c1Br [TETRABROMOBENZOTRIAZOLE]	-0.7	1.2	-0.4	-0.4	3.6	1.6	2.4	1.9	-0.2	2.1	3.1	1.5	4.1	1.3
